Data reported in ChEMBL document CHEMBL3137667, “[Drug-induced liver injury; fourteenth updated edition of the bibliographic database of liver injuries and related drugs]” (Gastroenterol Clin Biol, 2004).

Experiments:
[1] = human, serum, 4383 h
[2] = human
[3] = human; remark: listed apart in the source
[4] = Highest frequency of moderate liver toxicity observed during clinical trials, expressed as a percentage. [column '% BIOL' in source]; settings: human
[5] = human, serum
[6] = human; remark: listed apart in the source
[7] = human; remark: listed apart in the source
[8] = human, serum; remark: listed apart in the source
[9] = human; remark: listed apart in the source
[10] = human; remark: listed apart in the source
[11] = human; remark: listed apart in the source
[12] = Highest frequency of acute liver toxicity observed during clinical trials, expressed as a percentage. [column '% AIGUE' in source]; settings: human
[13] = human; remark: listed apart in the source
[14] = human; remark: listed apart in the source
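Wherever Hepatotoxicity (association with vascular disease) is given: count of indexed literature references reporting vascular liver injury in humans, e.g. peliosis hepatitis, hepatic veno-occlusive disease or Budd-Chiari syndrome.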
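Wherever Hepatotoxicity (benign tumour) is given: value is a count of indexed literature references citing a benign tumour confirmed by histopathology.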
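Wherever Hepatotoxicity (choleostasis) is given: human cholestatic liver injury, shown by histopathology or by peak ALT or AST elevation over alkaline phosphatase ratio below 2, value counts indexed literature reports.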
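Wherever Hepatotoxicity (chronic liver disease) is given: chronic liver injury confirmed by histopathology or persistently raised serum aminotransferase activity beyond 6 months, value given as the count of indexed literature references.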
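Wherever Hepatotoxicity (cirrhosis) is given: value is a count of indexed literature references reporting cirrhosis confirmed by histopathology.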
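Wherever Hepatotoxicity (cytolytic) is given: human cytolytic liver injury, shown by histopathology or by a ratio above 5 of peak ALT or AST elevation to alkaline phosphatase elevation, value counts indexed references.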
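Wherever Hepatotoxicity (granulomatous hepatitis) is given: value is a count of indexed literature references reporting granulomatous liver disease confirmed by histopathology.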
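Wherever Hepatotoxicity (malignant tumour) is given: malignant tumour confirmed by histopathology, value gives the count of indexed literature references reporting it.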
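Wherever Hepatotoxicity (severe hepatitis) is given: human clinical data: severe hepatitis, meaning potentially life-threatening liver failure or clinically observed cases, the value counts how many indexed literature references report it.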
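Wherever Hepatotoxicity (steatosis) is given: steatosis confirmed by histopathology, value is the count of indexed references.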

Structure (SMILES)	Hepatotoxicity (chronic liver disease) [1]	Hepatotoxicity (severe hepatitis) [2]	Hepatotoxicity (cirrhosis) [3]	Hepatotoxicity (moderate) [4]	Hepatotoxicity (acute) [5]	Hepatotoxicity (benign tumour) [6]	Hepatotoxicity (granulomatous hepatitis) [7]	Hepatotoxicity (moderate) [8]	Hepatotoxicity (malignant tumour) [9]	Hepatotoxicity (choleostasis) [10]	Hepatotoxicity (association with vascular disease) [11]	Hepatotoxicity (acute) [12]	Hepatotoxicity (steatosis) [13]	Hepatotoxicity (cytolytic) [14]
CNC1(c2ccccc2Cl)CCCCC1=O (stereo not given) [KETAMINE]	0	0	0	23.5%	0	0	0	2	0	0	0	0%	0	0
CN1CCC(=C2c3ccccc3CC(=O)c3sccc32)CC1 [KETOTIFEN]	0	0	0	0%	1	0	0	0	0	0	0	0%	0	0
CCOC(=O)C1=C(C)NC(C)=C(C(=O)OCC)C1c1ccccc1/C=C/C(=O)OC(C)(C)C [LACIDIPINE]	0	0	0	0%	0	0	0	1	0	0	0	0%	0	0
NCCNC(=O)c1ccc(Cl)cn1 [LAZABEMIDE]	0	0	0	0.3%	0	0	0	1	0	0	0	0%	0	0
Cc1oc(=O)oc1COC(=O)[C@@H]1N2C(=O)[C@@H](NC(=O)[C@H](N)c3ccccc3)[C@H]2SC1(C)C [LENAMPICILLIN]	0	0	0	22%	0	0	0	9	0	0	0	0%	0	0
O=C(CCCN1CCC(C(=O)c2ccc(F)cc2)CC1)c1ccc(F)cc1 [LENPERONE]	0	0	0	0%	0	0	0	2	0	0	0	0%	0	0
CCNC(=O)[C@@H]1CCCN1C(=O)[C@H](CCCNC(=N)N)NC(=O)[C@H](CC(C)C)NC(=O)[C@@H](CC(C)C)NC(=O)[C@H](Cc1ccc(O)cc1)NC(=O)[C@H](CO)NC(=O)[C@H](Cc1c[nH]c2ccccc12)NC(=O)[C@H](Cc1c[nH]cn1)NC(=O)[C@@H]1CCC(=O)N1 [LEUPROLIDE]	0	0	0	2.4%	0	0	0	3	0	0	0	0%	0	0
Clc1cccc(C(c2ccc3[nH]cnc3c2)n2ccnc2)c1 (stereo not given) [LIAROZOLE]	0	0	0	2.9%	0	0	0	1	0	0	0	0%	0	0
CC(C)(C)c1ccc(CCC(O)COc2ccc(C(=O)O)cc2)cc1 (stereo not given) [LIFIBROL]	0	0	0	3.9%	0	0	0	1	0	0	0	0%	0	0
CCC[C@@H]1C[C@@H](C(=O)N[C@@H]([C@H]2O[C@H](SC)[C@H](O)[C@@H](O)[C@H]2O)[C@@H](C)O)N(C)C1 [LINCOMYCIN]	0	0	0	0%	0	0	0	2	0	0	0	0%	0	0
O=C(O)c1nn(Cc2ccc(Cl)cc2Cl)c2ccccc12 [LONIDAMINE]	0	0	0	6.4%	0	0	0	4	0	0	0	0%	0	0
Cc1cccc(C)c1OCC(=O)N[C@@H](Cc1ccccc1)[C@@H](O)C[C@H](Cc1ccccc1)NC(=O)[C@H](C(C)C)N1CCCNC1=O [LOPINAVIR]	0	0	0	0%	2	0	0	1	0	0	0	8%	0	2
CC(C(=O)O)c1ccc(CC2CCCC2=O)cc1 (stereo not given) [LOXOPROFEN]	0	1	0	0%	1	0	0	0	0	0	0	0%	0	0
C#C[C@]1(O)CC[C@H]2[C@@H]3CCC4=CCCC[C@@H]4[C@H]3CC[C@@]21C [LYNESTRENOL]	0	0	0	0%	3	0	0	0	0	3	0	0%	0	0
CC(NN)c1ccccc1 (stereo not given) [MEBANAZINE]	0	0	0	9%	0	0	0	1	0	0	0	0%	0	0
